Measured values reported in ChEMBL document CHEMBL1142674, “Amino acid ester prodrugs of the antiviral agent 2-bromo-5,6-dichloro-1-(beta-D-ribofuranosyl)benzimidazole as potential substrates of hPEPT1 transporter” (J Med Chem, 2005).
pIC50: −log10 of the molar value. Active and inactive are the calls of the source. No cut-off for these calls is given here.

Tests used:
Format in all cases: cell-based
[1] = biological target: T1, Solute carrier family 15 member 1 (Homo sapiens) (UniProt P46059); assay: Relative inhibition of [3H]glycylsarcosine uptake in HeLa cells expressing human Intestinal peptide transporter PepT1 compared to BDCRB
T1 sequence (whole entry): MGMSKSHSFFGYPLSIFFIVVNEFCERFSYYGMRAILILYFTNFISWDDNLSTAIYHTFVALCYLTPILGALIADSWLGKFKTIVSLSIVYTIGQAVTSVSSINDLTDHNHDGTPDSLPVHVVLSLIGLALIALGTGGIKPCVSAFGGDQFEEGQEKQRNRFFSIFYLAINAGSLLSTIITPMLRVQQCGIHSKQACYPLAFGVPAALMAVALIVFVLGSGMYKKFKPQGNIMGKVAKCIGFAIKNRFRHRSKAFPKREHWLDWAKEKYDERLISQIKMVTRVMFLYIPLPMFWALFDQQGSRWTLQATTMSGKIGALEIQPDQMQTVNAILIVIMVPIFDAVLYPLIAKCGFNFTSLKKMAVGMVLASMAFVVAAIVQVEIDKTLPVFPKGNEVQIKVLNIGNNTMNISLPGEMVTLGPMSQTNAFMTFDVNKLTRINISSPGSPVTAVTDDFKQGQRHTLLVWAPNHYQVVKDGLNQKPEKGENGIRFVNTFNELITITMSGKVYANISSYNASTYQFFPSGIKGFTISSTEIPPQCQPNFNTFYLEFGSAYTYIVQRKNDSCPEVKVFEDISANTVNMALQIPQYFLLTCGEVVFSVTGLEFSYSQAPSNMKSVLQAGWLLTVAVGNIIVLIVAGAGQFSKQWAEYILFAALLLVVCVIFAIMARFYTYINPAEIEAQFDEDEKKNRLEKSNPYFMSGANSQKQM

[2] = biological target: T2, Solute carrier family 15 member 1 (Homo sapiens, UniProt P46059); assay: Inhibitory concentration against [3H]glycylsarcosine uptake in HeLa cells expressing human Intestinal peptide transporter PepT1
T2 sequence (P46059 whole entry): T1 sequence (whole entry)

[3] = biological target: T1, Solute carrier family 15 member 1 (Homo sapiens); assay: Relative inhibition of [3H]glycylsarcosine uptake in HeLa cells expressing human Intestinal peptide transporter PepT1 compared to BDCRB; na=Not applicable

SMILES: CCC(C)[C@H](N)C(=O)OC[C@H]1O[C@@H](n2c(Br)nc3cc(Cl)c(Cl)cc32)[C@H](O)[C@@H]1O (stereo partly drawn)
- Ratio [1]: 3.7
- pIC50 [2]: 3.92

SMILES: CC(C)[C@H](N)C(=O)OC[C@H]1OC(n2c(Br)nc3cc(Cl)c(Cl)cc32)[C@H](O)[C@@H]1O (stereo partly drawn)
- Ratio [1]: 2.7
- pIC50 [2]: 3.78

SMILES: N[C@H](CC(=O)O)C(=O)OC[C@H]1OC(n2c(Br)nc3cc(Cl)c(Cl)cc32)[C@H](O)[C@@H]1O (stereo partly drawn)
- Ratio [1]: 1.1
- pIC50 [2]: 3.38

SMILES: CC(C)[C@@H](N)C(=O)OC[C@H]1OC(n2c(Br)nc3cc(Cl)c(Cl)cc32)[C@H](O)[C@@H]1O (stereo partly drawn)
- Ratio [1]: 1.3
- pIC50 [2]: 3.47

SMILES: N[C@@H](CC(=O)O)C(=O)OC[C@H]1OC(n2c(Br)nc3cc(Cl)c(Cl)cc32)[C@H](O)[C@@H]1O (stereo partly drawn)
- Ratio [1]: 1.7
- pIC50 [2]: 3.59

SMILES: COc1ccc(C[C@H](N)C(=O)OC[C@H]2OC(n3c(Br)nc4cc(Cl)c(Cl)cc43)[C@H](O)[C@@H]2O)cc1 (stereo partly drawn)
- Ratio [1]: 1.5
- pIC50 [2]: 3.52

SMILES: OC[C@H]1O[C@H](n2c(Br)nc3cc(Cl)c(Cl)cc32)[C@@H](O)[C@H]1O
- Ratio [3]: inactive
- pIC50 [2]: 3.35

SMILES: N[C@H](Cc1ccccc1)C(=O)OC[C@H]1OC(n2c(Br)nc3cc(Cl)c(Cl)cc32)[C@H](O)[C@@H]1O (stereo partly drawn)
- Ratio [1]: 1.6
- pIC50 [2]: 3.55

SMILES: CC(C)[C@H](N)C(=O)OCCOCn1cnc2c(=O)nc(N)[nH]c21
- Ratio [3]: inactive

SMILES: CC(C)[C@H](N)C(=O)OCCOCn1cnc2c(=O)[nH]c(N)nc21 [VALACYCLOVIR]
- pIC50 [2]: 3.37

SMILES: N[C@@H](Cc1ccc(Cl)cc1)C(=O)OC[C@H]1OC(n2c(Br)nc3cc(Cl)c(Cl)cc32)[C@H](O)[C@@H]1O (stereo partly drawn)
- Ratio [1]: 3.1
- pIC50 [2]: 3.85

SMILES: NCCCC[C@H](N)C(=O)OC[C@H]1OC(n2c(Br)nc3cc(Cl)c(Cl)cc32)[C@H](O)[C@@H]1O (stereo partly drawn)
- Ratio [1]: 0.9
- pIC50 [2]: 3.32

SMILES: CCOc1ccc(C[C@H](N)C(=O)OC[C@H]2OC(n3c(Br)nc4cc(Cl)c(Cl)cc43)[C@H](O)[C@@H]2O)cc1 (stereo partly drawn)
- Ratio [1]: 4.7
- pIC50 [2]: 4.02

SMILES: N[C@@H](Cc1ccccc1)C(=O)OC[C@H]1OC(n2c(Br)nc3cc(Cl)c(Cl)cc32)[C@H](O)[C@@H]1O (stereo partly drawn)
- Ratio [1]: 2.1
- pIC50 [2]: 3.66

SMILES: O=C(OC[C@H]1OC(n2c(Br)nc3cc(Cl)c(Cl)cc32)[C@H](O)[C@@H]1O)[C@@H]1CCCN1 (stereo partly drawn)
- Ratio [1]: 0.8
- pIC50 [2]: 3.27
